Source: patent US9260499B2, “Tumor antigen peptide and use thereof” (SAPPORO MEDICAL UNIVERSITY, priority 2008, dated 2016)
Read-outs that look alike come from different tables or passages of the source.

Key:
HLA-A0201 = HLA-A0201 (Homo sapiens, UniProt P04439, D140Y/D185E/D98H/E176V/E277Q/G131W/G231S/I119V/I121R/I166T/I218V/L300P/L318F/N151K/N90K/P208A/P217A/Q86G/Q94H/R138H/R169H/T345S); experiment: HLA class I stabilization assay, binding affinity to HLA-A0201
[1] = test system: lymphocytes from PBF-positive patients with osteosarcoma; experiment: Frequency analysis of antigenic peptide-specific CTLs (LD/MLPC, HLA-A0201/PBF tetramer staining); type: cell-based, human
Experimental: Lymphocytes from five PBF-positive patients with osteosarcoma were subjected to ,mixed lymphocyte peptide culture under conditions of limiting dilution (limiting dilution/mixed lymphocyte peptide culture; LD/MLPC) to induce peptide-specific CTLs (Cancer Sci., 2008, 99:368-375, which is incorporated herein by reference). Regarding two patients: Patient Nos. 1 ,and 2, 50 ml of peripheral blood was collected to isolate peripheral blood mononuclear cells (PBMCs). PBMCs were cultured for 60 minutes at room temperature in AIM-V medium (Invitrogen) containing 1% human serum and supplemented with 50 μg/ml of the peptide shown in SEQ ID NO:4. PBMCs which were pulsed with the peptide were plated at 2×10^5 cells/200 μl/well on a U-bottomed 96-well microtiter plate and cultured in AIM-V medium containing 10% human serum, 20 U/ml IL-2, and 10 ng/ml IL-7. Seven days after the culture was started, half of the cultured medium in each well was replaced with AIM-V medium containing IL-2, IL-7, and the peptide shown in SEQ ID NO:4 in order to perform the second stimulation. Cells on 14 to 21 days after the culture was started were used for frequency analysis with a tetramer.
Regarding three patients: Patient Nos. 3, 4, and 5, CD8-positive cells were isolated from PBMCs using magnetic anti-CD8 microbeads (Miltenyi Biotec). CD8-positive cells were pulsed for 60 minutes with the peptide shown in SEQ ID NO:4 and inactivated by radiation. 1.0×10^5 to 2.1×10^5 CD8-positive cells/well were cultured on a 48-well microtiter plate using AIM-V medium containing 10% human serum, 20 U/ml IL-2, and 10 ng/ml IL-7, together with 2×10^5 to 5×10^5 cells/well of irradiated, peptide-pulsed CD8-positive cells. After 7 days of the culture, the irradiated peptide-pulsed CD8-positive cells were added as described above, in order to perform the second stimulation. Cells on 13 to 23 days after the culture was started were used for frequency analysis with a tetramer. A PE-labeled HLA-A0201/PBF tetramer (MBL) which was prepared using the peptide shown in SEQ ID NO:4 was used for the analysis.
An FITC-labeled HLA-A0201/HIV tetramer (MBL) which was prepared using an HIV-derived peptide was used as negative control. Some of the lymphocytes which were cultured using the LD/MLPC method were cultured at room temperature for 15 minutes with the PE-labeled HLA-A0201/PBF tetramer or with the FITC-labeled HLA-A0201/HIV tetramer (10 nM each, in 25 μl of PBS), followed by staining. Further, a PE-Cy5-labeled anti-CD8 antibody ,eBioscience) was added and incubated for 15 minutes, followed by staining. Then, cells were washed twice with PBS, fixed in 0.5% formalin, and analyzed in a flow cytometer FACScan. Living cells which were stained both with the PE-Cy5-labeled anti-CD8 antibody and with the PE-labeled HLA-A0201/PBF tetramer were considered to be tetramer-positive and peptide-specific CTLs. The frequency of CTLs specific for a peptide shown in SEQ ID ,NO:4 was determined using the following equation: Frequency=the number of tetramer-positive wells/(the total number of the wells examined×the number of CD8-positive cells per well at the start of LD/MLPC). Of the five patients, three patients: Patient Nos. […], had frequencies of 5×10^−6, 2×10^−7, and 5×10^−7, respectively.

| Substance | % MFI increase±standard deviation (SD) (HLA-A0201) [%] | % MFI increase±standard deviation (SD) (HLA-A0201; triplicate, FITC-labeled anti-HLA-A2 antibody BB7.2, flow cytometry) [%] | Frequency of CTLs specific for the peptide ([1]; Patient No. 1) | Number of tetramer-positive wells ([1]; Patient No. 1, PBMCs, 18 wells tested, 200,000 initial cells per well, 25% CD8) | Frequency of CTLs specific for the peptide ([1]; Patient No. 2) | Number of tetramer-positive wells ([1]; Patient No. 2, PBMCs, 46 wells tested, 200,000 initial cells per well, 24% CD8) | Frequency of CTLs specific for the peptide ([1]; Patient No. 3) | Number of tetramer-positive wells ([1]; Patient No. 3, CD8-positive cells, 56 wells tested, 210,000 initial cells per well, 99% CD8) | Frequency of CTLs specific for the peptide ([1]; Patient No. 4) | Number of tetramer-positive wells ([1]; Patient No. 4, CD8-positive cells, 36 wells tested, 150,000 initial cells per well, 99% CD8) | Frequency of CTLs specific for the peptide ([1]; Patient No. 5) | Number of tetramer-positive wells ([1]; Patient No. 5, CD8-positive cells, 103 wells tested, 100,000 initial cells per well, 99% CD8) |
| --- | --- | --- | --- | --- | --- | --- | --- | --- | --- | --- | --- | --- |
| RGYVYQGL [SEQ ID NO:6, reference compound] | 5.6±8.2 |  |  |  |  |  |  |  |  |  |  |  |
| SEQ ID NO:4: fragment peptide of tumor antigen protein PBF (papillomavirus binding factor) binding to HLA-A2 antigen; synthesized by the Fmoc method (ALPSFQIPV) |  | 74.5±6.6 | <1 × 10^−6 | 0 | 5×10^−6 | 10 | 2×10^−7 | 2 | 5×10^−7 | 3 | <1 × 10^−7 | 0 |
